Residues, ends and D or L forms follow the SMILES beside them.
How the values were obtained:
[1] = target: T1, Integrin alpha-IIb/beta-3 (Homo sapiens, UniProt P05106+P08514); assay: Inhibition of platelet aggregation after 0.25 mg/kg/day dose over 4 days at trough plasma concentrations in dogs; format: functional, organism-based; settings: Canis lupus familiaris, target entry is the homologue from another species
Homo sapiens = species: Homo sapiens; assay: half-life was measured on unactivated human platelets
[2] = Oral bioavailability in dog; format: ADME, organism-based, Canis lupus familiaris; settings: in vivo
[3] = The biological half life was measured on dog; format: ADME, organism-based, Canis lupus familiaris; settings: in vivo
[4] = target: T1, Integrin alpha-IIb/beta-3; assay: Inhibition of platelet aggregation after oral administration of 3 mg/kg to guinea pigs at 8 hr; format: functional, organism-based; set-up: dose 3 mg/kg; settings: Cavia porcellus; target entry is the homologue from another species; at 3 mg/kg
[5] = target: T1, Integrin alpha-IIb/beta-3; assay: Inhibition of platelet aggregation after oral administration of 3 mg/kg to guinea pigs within 1 hr; format: functional, organism-based; set-up: dose 3 mg/kg; settings: Cavia porcellus; target entry is the homologue from another species; at 3 mg/kg
[6] = oral bioavailability was measured in dogs; format: ADME, organism-based, Canis lupus familiaris; settings: dog, in vivo
[7] = oral bioavailability was measured on dogs and rats; format: ADME, organism-based; settings: eutheria, in vivo
[8] = Inhibition of platelet aggregation
[9] = Inhibition of vitronectin receptor binding; set-up: species or system Homo sapiens
[10] = Bioavailability in humans; format: ADME, organism-based; settings: human, in vivo
[11] = Half-life in humans; format: ADME, organism-based; settings: human, in vivo
[12] = In vitro inhibition of gel filtered platelet aggregation induced by ADP.
[13] = target: T1, Integrin alpha-IIb/beta-3; assay: Dissociation constant for alpha IIb beta-3 integrin rested platelets; format: functional
Target sequence in this assay (P05106 27-788 limits assumed): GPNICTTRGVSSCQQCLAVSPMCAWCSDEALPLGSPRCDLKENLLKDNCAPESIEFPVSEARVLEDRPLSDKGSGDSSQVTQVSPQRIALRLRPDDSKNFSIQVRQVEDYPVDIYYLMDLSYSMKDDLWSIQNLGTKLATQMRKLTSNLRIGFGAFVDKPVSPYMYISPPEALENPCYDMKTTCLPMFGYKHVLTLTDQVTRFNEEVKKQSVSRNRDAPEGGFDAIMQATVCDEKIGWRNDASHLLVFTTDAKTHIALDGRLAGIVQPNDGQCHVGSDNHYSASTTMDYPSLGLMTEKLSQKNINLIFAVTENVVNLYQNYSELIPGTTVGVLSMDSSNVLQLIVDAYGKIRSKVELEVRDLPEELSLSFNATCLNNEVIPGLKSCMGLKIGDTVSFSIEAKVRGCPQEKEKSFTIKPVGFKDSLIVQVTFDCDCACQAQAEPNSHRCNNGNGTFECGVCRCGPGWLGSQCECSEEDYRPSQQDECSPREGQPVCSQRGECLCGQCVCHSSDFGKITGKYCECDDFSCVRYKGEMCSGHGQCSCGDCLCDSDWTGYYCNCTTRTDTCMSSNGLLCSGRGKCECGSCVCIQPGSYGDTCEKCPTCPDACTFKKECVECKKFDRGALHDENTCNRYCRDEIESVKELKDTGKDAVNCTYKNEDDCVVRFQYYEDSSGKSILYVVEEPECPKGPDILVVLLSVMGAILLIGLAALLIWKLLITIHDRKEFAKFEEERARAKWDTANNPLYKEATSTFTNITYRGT
Target sequence in this assay (P08514 32-887 limits assumed): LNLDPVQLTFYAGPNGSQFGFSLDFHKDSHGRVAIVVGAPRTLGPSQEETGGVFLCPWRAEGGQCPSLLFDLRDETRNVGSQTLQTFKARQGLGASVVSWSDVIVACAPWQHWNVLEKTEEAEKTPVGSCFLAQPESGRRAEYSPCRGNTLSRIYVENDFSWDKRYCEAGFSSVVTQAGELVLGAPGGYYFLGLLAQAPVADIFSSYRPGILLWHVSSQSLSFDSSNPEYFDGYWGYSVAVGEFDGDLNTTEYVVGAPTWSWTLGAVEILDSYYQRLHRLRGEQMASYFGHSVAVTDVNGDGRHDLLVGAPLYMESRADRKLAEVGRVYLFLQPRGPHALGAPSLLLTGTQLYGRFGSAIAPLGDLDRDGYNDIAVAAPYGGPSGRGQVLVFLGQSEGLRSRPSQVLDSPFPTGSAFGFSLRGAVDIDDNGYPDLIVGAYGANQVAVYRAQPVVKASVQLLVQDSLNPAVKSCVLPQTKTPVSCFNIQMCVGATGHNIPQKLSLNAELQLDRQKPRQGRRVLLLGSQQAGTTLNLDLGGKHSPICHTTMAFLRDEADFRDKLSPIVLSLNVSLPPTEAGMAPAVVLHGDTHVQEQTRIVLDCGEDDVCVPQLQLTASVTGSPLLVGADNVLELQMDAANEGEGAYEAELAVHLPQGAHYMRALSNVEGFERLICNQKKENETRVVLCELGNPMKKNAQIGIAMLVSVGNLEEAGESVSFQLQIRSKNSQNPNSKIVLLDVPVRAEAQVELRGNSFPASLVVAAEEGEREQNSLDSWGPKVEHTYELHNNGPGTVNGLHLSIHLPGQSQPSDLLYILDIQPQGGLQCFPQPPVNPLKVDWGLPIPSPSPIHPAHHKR
Target sequence in this assay (P08514 891-1039 limits assumed): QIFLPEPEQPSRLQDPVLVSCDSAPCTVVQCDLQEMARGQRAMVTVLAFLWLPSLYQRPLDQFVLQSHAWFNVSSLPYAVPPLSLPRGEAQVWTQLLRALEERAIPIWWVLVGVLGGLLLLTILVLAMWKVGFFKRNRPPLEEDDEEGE

[14] = oral bioavailability was measured on rats; format: ADME, organism-based; settings: rat, in vivo
[15] = oral bioavailability was measured on rhesus monkey; format: ADME, organism-based, Macaca mulatta; settings: in vivo
[16] = biological half-life was measured on dog; format: ADME, organism-based, Canis lupus familiaris; settings: in vivo
[17] = target: T1, Integrin alpha-IIb/beta-3; assay: Percent inhibition of gel filtered platelet aggregation induced by ADP; format: functional; settings: concentration not given here
[18] = target: T1, Integrin alpha-IIb/beta-3; assay: Inhibition of platelet aggregation after administration of 10 ug/kg iv to dogs at 8 hr; format: functional, organism-based; settings: Canis lupus familiaris; target entry is the homologue from another species
[19] = target: T1, Integrin alpha-IIb/beta-3; assay: Inhibition of platelet aggregation after administration of 10 ug/kg iv to dogs within 1 min; format: functional, organism-based; settings: Canis lupus familiaris; target entry is the homologue from another species
[20] = target: T1, Integrin alpha-IIb/beta-3; assay: Inhibition of platelet aggregation after administration of 0.1 mg/kg at 24 hr; settings: Canis lupus familiaris
[21] = target: T1, Integrin alpha-IIb/beta-3; assay: Inhibition of ex vivo maximal platelet aggregation in conscious dogs after oral administration of 4 mg/kg; settings: Canis lupus familiaris; target entry is the homologue from another species; at 4 mg/kg
[22] = half-life of compound in human; settings: in vivo
[23] = target: T1, Integrin alpha-IIb/beta-3; assay: Inhibition of fibrinogen binding to alpha IIb beta-3 integrin; format: protein-complex assay
Target sequence in this assay (P05106 27-788 limits assumed): as the sequence (P05106 27-788 limits assumed) above
Target sequence in this assay (P08514 32-887 limits assumed): as the sequence (P08514 32-887 limits assumed) above
Target sequence in this assay (P08514 891-1039 limits assumed): as the sequence (P08514 891-1039 limits assumed) above

O=C(NC[C@H](NS(=O)(=O)c1ccccc1)C(=O)O)c1cc2cc(OCC3CCNCC3)ccc2[nH]1
inhibition [1]: 95%

Cc1noc(C)c1S(=O)(=O)N[C@@H](CNC(=O)C[C@H]1CC(c2ccc(C(=N)N)cc2)=NO1)C(=O)O
T1/2 (Homo sapiens): 0.533 h

C#C[C@H](CC(=O)O)NC(=O)CCC(=O)Nc1ccc(C(=N)N)cc1
bioavailability [2]: 53%
half-life [3]: 6.5 h

COC(=O)C[C@H]1C(=O)N(CC(=O)O)CCN1C(=O)CNC(=O)c1ccc(C(=N)N)cc1
inhibition [4]: 40%
inhibition [5]: > 90%

O=C(CCCC1CCNCC1)NCC(=O)N[C@H](CCc1c[nH]c2ccccc12)C(=O)O
bioavailability [6]: 4.9%

C[C@@H](COc1ccc(N2CCN(c3ccncc3)CC2)cc1)CC(=O)O
bioavailability [7]: > 50%

O=C(NC[C@H](NS(=O)(=O)c1ccccc1)C(=O)O)c1ccc(N2CCNCC2)cc1
IC50 [8]: 17 nM

CN1C(=O)c2ccccc2SSc2ccccc2NC(=O)[C@H](CC(=O)O)NC(=O)CNC(=O)[C@@H]1CCCN=C(N)N [SKF-107260]
Ki [9]: 3.5 nM

CCOC(=O)CN1CCN(C[C@@H]2CN(c3ccc(C(N)=NC(=O)OC)cc3)C(=O)O2)CC1 [GANTOFIBAN]
bioavailability [10]: 40%
half-life [11]: 6 h

N=C(N)c1ccc2oc(C(=O)NCCC(=O)NC[C@H](NS(=O)(=O)c3ccccc3)C(=O)O)cc2c1
IC50 [12]: 35 nM

CCCCS(=O)(=O)N[C@@H](CNC(=O)c1cc2n(n1)CCN(CCC1CCNCC1)C2=O)C(=O)O
Kd [13]: 1.4 nM

CCOC(=O)CCN1CC(=O)N(C)c2ccc(C#Cc3ccc(C(=N)NC(=O)OCC)cc3)cc2C1=O
bioavailability [14]: 6%
bioavailability [15]: 21%

CCOC(=O)CCNC(=O)N[C@H]1CCN(c2ccc(C(=N)N)cc2)C1=O [ORBOFIBAN]
bioavailability [2]: 28%
half-life [16]: 18 h

Cc1ccc(S(=O)(=O)N[C@@H](CNC(=O)c2cc3n(n2)CCCN(CCC2CCNCC2)C3=O)C(=O)O)cc1
inhibition [17]: 66%
inhibition [18]: > 90%
inhibition [19]: 79%
inhibition [20]: 87%

O=C(NC[C@H](NS(=O)(=O)c1cccnc1)C(=O)O)c1ccc2c(c1)C(=O)N(CCC1CCNCC1)C2
IC50 [12]: 15 nM

O=C(O)CCNC(=O)c1ccc2c(c1)C(=O)N(CCC1CCNCC1)C2
IC50 [12]: 25 nM
inhibition [21]: 90%

CCCCS(=O)(=O)N[C@@H](Cc1ccc(OCCCCC2CCNCC2)cc1)C(=O)O [TIROFIBAN]
half-life [22]: 0.5 h

COc1ccc(C[C@H](NC(=O)[C@H](CC(=O)O)NC(=O)CNC(=O)[C@@H](N)CCCNC(=N)N)C(N)=O)cc1 (H-RGDY(Me)-NH2)
IC50 [23]: 27000 nM

— ChEMBL document CHEMBL1133644, “Platelet glycoprotein IIb-IIIa antagonists as prototypical integrin blockers: novel parenteral and potential oral antithrombotic agents” (J Med Chem, 2000)
